# Laboratory results from patent publication US6919354B2, “1-aryl-or 1-alkylsulfonylbenzazole derivatives as 5-hydroxytryptamine-6 ligands” (Wyeth, priority 2001, dated 2005).
# pKi: −log10 of the molar value. Structures can show the parent of a compound that is named as a salt.
# Molecular target: T1, human cloned 5-HT6 receptors (Homo sapiens, UniProt P50406)
# T1 construct: expressed in transfected cells; host or cells: HeLa cells
# Test: 5-HT6 binding affinity, [3H]-LSD displacement from membranes of Hela cells expressing human cloned 5-HT6 receptors
# Conditions: 1 μM test compound; [3H]-LSD 3.0 nM
# Method: The affinity of test compounds for the serotonin 5-HT6 receptor is evaluated in the following manner. Cultured Hela cells expressing human cloned 5-HT6 receptors are harvested and centrifuged at low speed (1,000×g) for 10.0 min to remove the culture media. The harvested cells are suspended in half volume of fresh physiological phosphate buffered saline solution and recentrifuged at the same speed. This operation is repeated. The collected cells are then homogenized in ten volumes of 50 mM Tris.HCl (pH 7.4) and 0.5 mM EDTA. The homogenate is centrifuged at 40,000×g for 30.0 min and the precipitate is collected. The obtained pellet is resuspended in 10 volumes of Tris.HCl buffer and recentrifuged at the same speed. The final pellet is suspended in a small volume of Tris.HCl buffer and the tissue protein content is determined in aliquots of 10-25 μl volumes. Bovine Serum Albumin is used as the standard in the protein determination according to the method described in Lowry et al., J. Biol. Chem., 193:265 (1951). The volume of the suspended cell membranes is adjusted to give a tissue protein concentration of 1.0 mg/ml of suspension. The prepared membrane suspension (10 times concentrated) is aliquoted in 1.0 ml volumes and stored at −70° C. until used in subsequent binding experiments.
# Binding experiments are performed in a 96 well microtiter plate format, in a total volume of 200 μl. […] The test compounds are added in 20.0 μl volume.
# The reaction is allowed to proceed in the dark for 120 min at room temperature, at which time, the bound ligand-receptor complex is filtered off on a 96 well unifilter with a Packard Filtermate® 196 Harvester. The bound complex caught on the filter disk is allowed to air dry and the radioactivity is measured in a Packard TopCount® equipped with six photomultiplier detectors, after the addition of 40.0 μl Microscint®-20 scintillant to each shallow well. The unifilter plate is heat-sealed and counted in a PackardTopCount® with a tritium efficiency of 31.0%.
# Binding in the presence of varying concentrations of test compound is expressed as a percentage of specific binding in the absence of test compound. The results are plotted as log % bound versus log concentration of test compound. […] A linear regression line of data points is plotted, from which the IC50 value is determined and the Ki value is determined based upon the following equation: Ki=IC50/(1+L/KD) where L is the concentration of the radioactive ligand used and KD is the dissociation constant of the ligand for the receptor, both expressed in nM.
# T1 sequence (P50406 whole entry): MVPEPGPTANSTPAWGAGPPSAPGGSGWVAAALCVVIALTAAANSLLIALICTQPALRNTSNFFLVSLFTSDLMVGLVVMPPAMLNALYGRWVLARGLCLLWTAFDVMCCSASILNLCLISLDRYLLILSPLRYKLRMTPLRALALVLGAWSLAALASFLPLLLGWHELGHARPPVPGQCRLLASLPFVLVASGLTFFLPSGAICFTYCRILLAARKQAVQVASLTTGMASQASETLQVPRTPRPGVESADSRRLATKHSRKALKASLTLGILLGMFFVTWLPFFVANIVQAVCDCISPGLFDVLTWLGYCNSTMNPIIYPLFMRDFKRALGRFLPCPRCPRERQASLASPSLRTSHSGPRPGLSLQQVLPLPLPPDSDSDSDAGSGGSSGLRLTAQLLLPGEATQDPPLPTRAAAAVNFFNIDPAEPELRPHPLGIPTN
row,Molecule,% inhibition at 1 μM concentration (5-HT6 binding)
1,"N,N-Bis(3-methoxybenzyl)-N-(2-{[1-(phenylsulfonyl)-1H-indol-4-yl]oxy}ethylamine [Example 7a]",94% @ 1 μM*
2,N-(3-methoxybenzyl)-N-(2-{[1-(phenylsulfonyl)-1H-indol-4-yl]oxy}ethylamineH hydrochloride [Example 7b],95% @ 1 μM*

# Same assay, conditions: 1 μM test compound; [3H]-LSD 3.0 nM; read-out: % inhibition at 1 μM concentration (5-HT6 binding)
row,inhibition at 1 µM,Molecule
1,92%,"O=S(=O)(c1ccccc1)n1ccc2c(OCCN3CCOCC3)cccc21 [Example 9, 4-(2-Morpholin-4-ylethoxy)-1-(phenylsulfonyl)-1H-indole Hydrochloride]"
2,76%,"O=[N+]([O-])c1ccc(S(=O)(=O)n2ncc3c(OCCN4CCCCC4)cccc32)cc1 [Example 15, 1-[(4-nitrophenyl)sulfonyl]-4-[2-(1-piperidinyl)ethoxy]-1H-indazole]"

# Same assay, conditions: [3H]-LSD 3.0 nM, Hela cell membranes, 120 min at room temperature
row,Molecule,pKi
1,"NCCOc1cccc2c1ccn2S(=O)(=O)c1ccccc1 [Example 5, 2-{[1-(Phenylsulfonyl)-1H-indole-4-yl]oxy}ethylamine Hydrochloride]",8.70
2,"O=S(=O)(c1ccccc1)n1ncc2c(OCCN3CCCCC3)cccc21 [Example 13, 1-Phenylsulfonyl)-4-[1-piperidinyl)ethoxy]-1H-indazole Hydrochloride]",8.70
3,"O=S(=O)(c1ccc(F)cc1)n1ncc2c(OCCN3CCCCC3)cccc21 [Example 16, 1-[(4-fluorophenyl)sulfonyl]-4-[2-(1-piperidinyl)ethoxy]-1H-indazole]",7.72
4,"Nc1ccc(S(=O)(=O)n2ncc3c(OCCN4CCCCC4)cccc32)cc1 [Example 19, 4-({4-[2-(1-Piperidinyl)ethoxy]-1H-indazol-1-yl}sulfonyl)aniline]",9.00

# Other lines, results leading:
row,pKi,Molecule
1,8.22,"O=S(=O)(c1ccccc1)n1ccc2c(OCCNC3CCOCC3)cccc21 [Example 6, N-(2-{[1-(Phenylsulfonyl)-1H-indol-4-yl]oxy}ethyl)tetrahydro-2H-pyran-4-amine Hydrochloride]"
2,8.40,"CN(C)CCOc1cccc2c1ccn2S(=O)(=O)c1ccccc1 [Example 8, N,N-Dimethyl-N-(2-{[1-phenylsulfonyl)-1H-indol-4-yl]oxy}ethylamine Hydrochloride]"
3,8.15,"O=S(=O)(c1ccccc1)n1ccc2c(OCCN3CCCCC3)cccc21 [Example 10, 1-(Phenylsulfonyl)-4-(2-piperidin-1-ylethoxy)-1H-indole Hydrochloride]"
4,9.00,"NCCOc1cccc2c1cnn2S(=O)(=O)c1ccccc1 [Example 14, 2-{[1-Phenylsulfonyl)-1H-indazol-4-yl]oxy}ethylamine Hydrochloride]"
5,8.22,O=S(=O)(c1ccccc1)n1ncc2c(OCCNC3CCOCC3)cccc21 [Example 17]
6,7.96,"O=S(=O)(c1ccccc1)n1ncc2c(OCCNC3CCSCC3)cccc21 [Example 18, N-(2-{[1-Phenylsulfonyl)-1H-indazol-4-yl]oxy}ethyl)tetrahydro-2H-thiopyran-4-amine Hydrochloride]"

# Tested on: not given
# Test: not given
# Conditions: not given
row,melting point,Molecule
1,117 to 119 °C,"O=[N+]([O-])c1ccc(S(=O)(=O)n2ncc3c(OCCN4CCCCC4)cccc32)cc1 (as salt: hydrochloride) [Example 15, 1-[(4-nitrophenyl)sulfonyl]-4-[2-(1-piperidinyl)ethoxy]-1H-indazole]"
2,122 °C (dec.),"O=S(=O)(c1ccc(F)cc1)n1ncc2c(OCCN3CCCCC3)cccc21 (as salt: hydrochloride) [Example 16, 1-[(4-fluorophenyl)sulfonyl]-4-[2-(1-piperidinyl)ethoxy]-1H-indazole]"
